Values quoted from earlier work in patent publication US20070042040A1, “Methods and compositions using gonadotropin hormone releasing hormone” (priority 2003, published 2007).

Details: mouse models

## C[C@]12CC[C@H]3[C@@H](CCC4=C[C@H](O)CC[C@@H]43)[C@@H]1CC[C@@H]2O [(3α,17β)-estr-4-ene-3,17-diol]
  effect on bone loss: reverse bone loss
